Data published in patent US20080090878A1, “Pharmaceutical combinations and their use in treating gastrointestinal and abdominal viscera disorders” (priority 1999, published 2008).

Test system: Guinea-Pig Colon Entero-Chromaffin Cells
Experiment: Release of serotonin (5HT) from guinea-pig colon entero-chromaffin cells, organ bath, HPLC
Type: cell-based, guinea-pigs
Conditions: guinea-pig proximal colon
Procedure: Male guinea-pigs, 200-400 g are stunned and bled. Segments of the proximal colon are removed and suspended, as described by Trendelenburg in Arch. Exp. Path. Pharmakol., 81, 55-129 (1917), in a 20 ml organ bath. The tissue is bathed with a modified Krebs solution (NaCl 118.6; CaCl2 2.7; KCl 4.7; KH2 PO4 1.2; MgSO4 0.1; NaHCO3 25.0; and glucose 5.6 mM), maintained at 37° C. 5-HT is determined by high-performance liquid chromatography with electro-chemical detection. […] To individual organ baths the following agents are added prior to the addition of physostigmine (1 microM): 1) no addition (negative control), 2) atropine (0.2 microM) (positive control), 3) hexamethonium (100 microM) (positive control), 4) tegaserod, 5) cilansetron, 6) prucalopride, 7) A-85380, 8) fedotozine, 9) chlordiazepoxide, 10) CGP49823, 11) buproprion, 12) fluvoxamine, 13) tegaserod plus cilansetron, 14) tegaserod plus prucalopride, 15) tegaserod plus A-85380, 16)-tegaserod plus fedotozine, 17) tegaserod plus chlordiazepoxide, 18) tegaserod plus SDZ-NKT-343, 19) tegaserod plus buproprion, or 20) tegaserod plus fluvoxamine. The combination of agents results in an amplification of the reduction of physostigmine-induced serotonin outflow as compared to any of the agents alone.

Structure (SMILES) | luminal outflow of 5-HT (100 microM) | luminal outflow of 5-HT (0.2 microM)
C[N+](C)(C)CCCCCC[N+](C)(C)C [hexamethonium] | significantly reduced | 
CN1[C@@H]2CC[C@H]1C[C@@H](OC(=O)C(CO)c1ccccc1)C2 (some centres unmarked) [atropine] |  | significantly reduced
